# Measurements from patent US8945879B2, “Methods for recombinant expression of a polypeptide comprising a carbohydrate binding module using a host cell having reduced expression of a protease” (priority 2007, dated 2015).
# Numbered stars: 1 amine (or outer) side, 2 acyl side, 3 side chain; on linkers, the order of the positions; unused ones are H or OH. Square brackets hold non-standard residues; d marks the D form. Peptide text beside a SMILES is read from it. * marks the point of attachment. Sta = CC(C)C[C@H](N)[C@@H](O)CC(=O)O; AMC = Cc1cc(=O)oc2cc(N*)ccc12; Suc = O=C(CCC(=O)[*:2])[*:1]; Isovaleryl = CC(C)CC(=O)*; code Z = not defined here; Boc = CC(C)(C)OC(=O)*
# System: 19 kDa protease
# Test: Substrate specificity of the 19 kDa protease (fluorogenic MCA substrates)
# Assay type: biochemical, Aspergillus niger
# Conditions: 0.04 mM substrate solution, phosphate buffer pH 6.7, 37° C., 30 min, fluorescence 360/460 nm; Suc-LLVY-MCA = 100%
# Description: (§1) Five synthetic substrates were purchased from Peptide Institute Co., Osaka. The substrates are Glt-AAF-MCA, Suc-LLVY-MCA, Boc-FSR-MCA, Suc(OMe)-AAPV-MCA, and Z-LLE-MCA. 25 μl of 0.04 mM substrates were preincubated at 37° C. for 5 min. 20 μl of protease sample were mixed with 25 μl of 400 mM phosphate buffer, pH 6.7, 5 μl of 2 M NaCl, and 25 μl of Milli Q water, and then preincubated at 37° C. for 5 min. The reactions were started by mixing the substrate solutions and the enzyme solutions. Increases of fluorescent strength were measured by FL600 Microplate Fluorescence Reader with 360 nm excitation and 460 nm emission filters at 37° C. for 30 min.
row,Molecule,Substrate specificity (relative activity on substrate) [%]
1,"Glt-AAF-MCA (Glt-Ala-Ala-Phe-{AMC}) [synthetic substrate purchased from Peptide Institute Co., Osaka]",1.6
2,"Suc(OMe)-AAPV-MCA ({Suc(OMe)}-AAPV-{AMC}) [synthetic substrate purchased from Peptide Institute Co., Osaka]",0.2
3,"Boc-FSR-MCA (Boc-Phe-Ser-Arg-{AMC}) [synthetic substrate purchased from Peptide Institute Co., Osaka]",0.3
4,"Z-LLE-MCA ({code Z}-Leu-Leu-Glu-{AMC}; reading uncertain; also: printed as Z-LLE-MCA) [synthetic substrate purchased from Peptide Institute Co., Osaka]",0.1
5,"Suc-LLVY-MCA (Suc-LLVY-{AMC}) [synthetic substrate purchased from Peptide Institute Co., Osaka]",100.0

# Same assay, conditions: five synthetic substrates compared, pH 6.7, 37° C.
row,Molecule,substrate ranking (in words)
1,"Suc-LLVY-MCA (Suc-LLVY-{AMC}) [synthetic substrate purchased from Peptide Institute Co., Osaka]",best substrate

# System: 19 kDa protease
# Test: Effects of inhibitors on the 19 kDa protease (Suc-LLVY-MCA hydrolysis)
# Assay type: biochemical, Aspergillus niger
# Conditions: substrate 0.04 mM Suc-LLVY-MCA, KPB pH 6.7, 37° C.; 10 μl inhibitor stock (10 mM AEBSF, ZnSO4, EDTA; leupeptin 4.5 mg/10 ml and pepstatin A 3 mg/10 ml in DMSO diluted 10 times)
# Description: as §1
# 4-(2-aminoethyl)-benzenesulfonyl fluoride (AEBSF), leupeptin, pepstatin A, ZnSO4, and EDTA were purchased from Wako Chemical Co., Osaka. The inhibitors were 4.5 mg/10 ml leupeptin in DMSO diluted 10 times by Milli Q water, 3 mg/10 ml pepstatin A in DMSO diluted 10 times by Milli-Q water, 10 mM AEBSF, 10 mM ZnSO4, and 10 mM EDTA. The substrate was 0.04 mM Suc-LLVY-MCA. Enzyme solution contains 5 μl of pooled 19 kDa protease fraction, 10 μl of inhibitors, 25 μl of 400 mM KPB, pH 6.7, and 35 μl of Milli-Q water. The substrate solution and the enzyme solutions were preincubated separately at 37° C. for 5 min. The activities were measured as described above.
row,Molecule,residual activity (%)
1,O=S(=O)([O-])[O-].[Zn+2] [ZnSO4],99
2,"CC(C)CC(=O)N[C@H](C(=O)N[C@H](C(=O)N[C@@H](CC(C)C)[C@@H](O)CC(=O)N[C@@H](C)C(=O)N[C@@H](CC(C)C)[C@@H](O)CC(=O)O)C(C)C)C(C)C [Pepstatin, pepstatin A] (Isovaleryl-VV[Sta]A[Sta]-OH)",91
3,O=C(O)CN(CCN(CC(=O)O)CC(=O)O)CC(=O)O [EDTA],101
4,"CC(=O)N[C@@H](CC(C)C)C(=O)N[C@@H](CC(C)C)C(=O)N[C@H](C=O)CCCNC(=N)N [Leupeptin, leupeptin]",89
5,"NCCc1ccc(S(=O)(=O)F)cc1 [AEBSF, 4-(2-aminoethyl)-benzenesulfonyl fluoride]",100

# System: not listed separately
# Test: pH profile of the 19 kDa protease
# Assay type: biochemical, Aspergillus niger
# Conditions: phosphate buffer pH 6, 7, 8 and diethanolamine buffer pH 8, 9, 10; 0.04 mM Suc-LLVY-MCA
# Description: as §1
# Phosphate buffer pH6, 7, 8, and Diethanolamine buffer pH 8, 9, 10 were used. The substrate solution was 0.04 mM Suc-LLVY-MCA. The enzyme solution contains 5 μl of 19 kDa protease, 25 μl of buffer, 5 μl of 2 M NaCl and 40 μl of Milli Q water. Assay was performed as described before. The 19 kDa protease is an alkaline protease with the pH optimum 8-9.
row,Molecule,pH optimum
1,"19 kDa protease: Aspergillus niger 19 kDa protease (SEQ ID NO: 5) expressed intracellularly in A. oryzae, pooled gel permeation fractions (protein, Aspergillus niger) MSPIPSYSRPGRGQHFQDAYGFAEACIAGDRMEIAGQTGMSPTSTEVPPTLEEEVAQAFNNINEVILYTLEKAKPDLRASVKSGWDRVVKIRTYHVQLPQTREKIIGLMVENVKKWCPDHQPTWTMLGIEALPFEGQNLEIEVDVFLG",8-9
